# Target: T1, human α3β4-nAChR subtype (Homo sapiens, UniProt P30926+P32297)
# T1 construct: expressed in transfected cells
# Assay: Competition binding with [3H]epibatidine, membranes of SH-EP1 cells stably transfected with α3 and β4
# Conditions: human α3β4 expressed in SH-EP1 cells; confidence interval in parentheses; read-out: α3β4-nAChR [3H]-Epi Ki
row,Compound,Ki [nM]
1,"CC[N+](CC)(CC)CCOc1ccc(-c2nc3ccccc3o2)cc1.[I-] [Compound 28, 2-(4-(Benzo[d]oxazol-2-yl)phenoxy)-N,N,N-triethylethan-1-aminium Iodide]",653
2,"CC[N+](CC)(CC)CCOc1ccc(-c2nc3ccccc3[nH]2)cc1 [Compound 29, 2-(4-(1H-Benzo[d]imidazol-2-yl)phenoxy)-N,N,N-triethylethan-1-aminium Iodide]",345
3,"CC[N+](CC)(CC)CCOc1ccc(-c2ccc3cc[nH]c3c2)cc1.[I-] [Compound 30, 2-(4-(1H-Indol-6-yl)phenoxy)-N,N,N-triethylethan-1-aminium Iodide]",174
4,"CC[N+](CC)(CC)CCOc1ccc(-c2ccc3[nH]ccc3c2)cc1.[I-] [Compound 31, 2-(4-(1H-Indol-5-yl)phenoxy)-N,N,N-triethylethan-1-aminium Iodide]",177
5,"CC[N+](CC)(CC)CCOc1ccc(-c2ccc3occc3c2)cc1 [Compound 32, 2-(4-(Benzofuran-5-yl)phenoxy)-N,N,N-triethylethan-1-aminium Iodide]",343
6,"C[N+]1(C)CC[C@@H](Oc2ccc(-c3ccc4[nH]ccc4c3)cc2)C1.[I-] [Compound 33, (R)-3-(4-(1H-Indol-5-yl)phenoxy)-1,1-dimethylpyrrolidin-1-ium Iodide]",365

# Target: T2, human α4β2-nAChR subtype (Homo sapiens, UniProt P17787+P43681)
# T2 construct: expressed in transfected cells; gift of Dr. Jon Lindstrom
# Assay: Competition binding with [3H]epibatidine, membranes of HEK 293 cells stably transfected with α4 and β2
# Conditions: human α4β2 expressed in HEK 293 cells; confidence interval in parentheses; read-out: α4β2-nAChR [3H]-Epi Ki
row,Compound,Ki [nM]
1,"C[N+]1(C)CC[C@@H](Oc2ccc(-c3ccc4[nH]ccc4c3)cc2)C1.[I-] [Compound 33, (R)-3-(4-(1H-Indol-5-yl)phenoxy)-1,1-dimethylpyrrolidin-1-ium Iodide]",5100

# Target: T3, human α7-nAChR (Homo sapiens, UniProt P36544)
# Assay: Two-electrode voltage clamp, antagonism of currents activated by 1 mM ACh, test compound coapplied, X. laevis oocytes
# Assay type: cell-based
# Conditions: coapplied with 1 mM ACh, up to 100 μM
row,Compound,inhibition of ACh-induced α7-nAChR function (in words)
1,"CC[N+](CC)(CC)CCOc1ccc(/N=N/c2ccccc2)cc1.[I-] [Compound 27, (E)-N,N,N-Triethyl-2-(4-(phenyldiazenyl)phenoxy)ethan-1-aminium Iodide]",complete or nearly complete inhibition
2,"CC[N+](CC)(CC)CCOc1ccc(-c2ccc3cc[nH]c3c2)cc1.[I-] [Compound 30, 2-(4-(1H-Indol-6-yl)phenoxy)-N,N,N-triethylethan-1-aminium Iodide]",complete or nearly complete inhibition
3,"CC[N+](CC)(CC)CCOc1ccc(-c2ccc3[nH]ccc3c2)cc1.[I-] [Compound 31, 2-(4-(1H-Indol-5-yl)phenoxy)-N,N,N-triethylethan-1-aminium Iodide]",complete or nearly complete inhibition

# Same assay, conditions: coapplied with 1 mM ACh, up to 100 μM; 95% confidence interval in parentheses; NA = not inhibited even at 100 μM; read-out: α7 IC50 (AUC)
row,Compound,IC50 [nM]
1,"CC[N+](CC)(CC)CCOc1ccc(/N=N/c2ccccc2)cc1.[I-] [Compound 27, (E)-N,N,N-Triethyl-2-(4-(phenyldiazenyl)phenoxy)ethan-1-aminium Iodide]",5540
2,"CC[N+](CC)(CC)CCOc1ccc(-c2nc3ccccc3o2)cc1.[I-] [Compound 28, 2-(4-(Benzo[d]oxazol-2-yl)phenoxy)-N,N,N-triethylethan-1-aminium Iodide]",2250
3,"CC[N+](CC)(CC)CCOc1ccc(-c2nc3ccccc3[nH]2)cc1 [Compound 29, 2-(4-(1H-Benzo[d]imidazol-2-yl)phenoxy)-N,N,N-triethylethan-1-aminium Iodide]",197000
4,"CC[N+](CC)(CC)CCOc1ccc(-c2ccc3cc[nH]c3c2)cc1.[I-] [Compound 30, 2-(4-(1H-Indol-6-yl)phenoxy)-N,N,N-triethylethan-1-aminium Iodide]",1950
5,"CC[N+](CC)(CC)CCOc1ccc(-c2ccc3[nH]ccc3c2)cc1.[I-] [Compound 31, 2-(4-(1H-Indol-5-yl)phenoxy)-N,N,N-triethylethan-1-aminium Iodide]",1860

# Same assay, conditions: coapplied with 1 mM ACh, up to 100 μM; 95% confidence interval in parentheses; NA = not inhibited even at 100 μM; read-out: α7 IC50 (peak current)
row,Compound,IC50 [nM]
1,"CC[N+](CC)(CC)CCOc1ccc(/N=N/c2ccccc2)cc1.[I-] [Compound 27, (E)-N,N,N-Triethyl-2-(4-(phenyldiazenyl)phenoxy)ethan-1-aminium Iodide]",11200
2,"CC[N+](CC)(CC)CCOc1ccc(-c2nc3ccccc3o2)cc1.[I-] [Compound 28, 2-(4-(Benzo[d]oxazol-2-yl)phenoxy)-N,N,N-triethylethan-1-aminium Iodide]",1780
3,"CC[N+](CC)(CC)CCOc1ccc(-c2nc3ccccc3[nH]2)cc1 [Compound 29, 2-(4-(1H-Benzo[d]imidazol-2-yl)phenoxy)-N,N,N-triethylethan-1-aminium Iodide]",182000
4,"CC[N+](CC)(CC)CCOc1ccc(-c2ccc3cc[nH]c3c2)cc1.[I-] [Compound 30, 2-(4-(1H-Indol-6-yl)phenoxy)-N,N,N-triethylethan-1-aminium Iodide]",1910
5,"CC[N+](CC)(CC)CCOc1ccc(-c2ccc3[nH]ccc3c2)cc1.[I-] [Compound 31, 2-(4-(1H-Indol-5-yl)phenoxy)-N,N,N-triethylethan-1-aminium Iodide]",2010

# Same assay, conditions: maximal inhibition, coapplied with 1 mM ACh
row,Compound,inhibition of ACh-induced function at the α7-nAChR [%]
1,"CC[N+](CC)(CC)CCOc1ccc(-c2ccc3cc[nH]c3c2)cc1.[I-] [Compound 30, 2-(4-(1H-Indol-6-yl)phenoxy)-N,N,N-triethylethan-1-aminium Iodide]",100
2,"CC[N+](CC)(CC)CCOc1ccc(-c2ccc3[nH]ccc3c2)cc1.[I-] [Compound 31, 2-(4-(1H-Indol-5-yl)phenoxy)-N,N,N-triethylethan-1-aminium Iodide]",100

# Target: T4, human α9α10-nAChR (Homo sapiens, UniProt Q9GZZ6+Q9UGM1)
# T4 construct: expressed in transfected cells; host or cells: Xenopus laevis oocytes (cRNA injection, α9:α10 9:1)
# Assay: Two-electrode voltage clamp, antagonism of currents activated by 1 mM ACh, test compound coapplied, X. laevis oocytes (α9:α10 cRNA 9:1)
# Assay type: cell-based
# Conditions: coapplied with 1 mM ACh, up to 100 μM
row,Compound,inhibition of ACh-induced α9α10-nAChR function (in words)
1,"CC[N+](CC)(CC)CCOc1ccc(/N=N/c2ccccc2)cc1.[I-] [Compound 27, (E)-N,N,N-Triethyl-2-(4-(phenyldiazenyl)phenoxy)ethan-1-aminium Iodide]",complete or nearly complete inhibition
2,"CC[N+](CC)(CC)CCOc1ccc(-c2ccc3cc[nH]c3c2)cc1.[I-] [Compound 30, 2-(4-(1H-Indol-6-yl)phenoxy)-N,N,N-triethylethan-1-aminium Iodide]",complete or nearly complete inhibition
3,"CC[N+](CC)(CC)CCOc1ccc(-c2ccc3[nH]ccc3c2)cc1.[I-] [Compound 31, 2-(4-(1H-Indol-5-yl)phenoxy)-N,N,N-triethylethan-1-aminium Iodide]",complete or nearly complete inhibition
4,"C[N+]1(C)CC[C@@H](Oc2ccc(-c3ccc4[nH]ccc4c3)cc2)C1.[I-] [Compound 33, (R)-3-(4-(1H-Indol-5-yl)phenoxy)-1,1-dimethylpyrrolidin-1-ium Iodide]",complete or nearly complete inhibition

# Same assay, conditions: coapplied with 1 mM ACh, up to 100 μM; 95% confidence interval in parentheses
row,Compound,IC50 [nM]
1,"CC[N+](CC)(CC)CCOc1ccc(/N=N/c2ccccc2)cc1.[I-] [Compound 27, (E)-N,N,N-Triethyl-2-(4-(phenyldiazenyl)phenoxy)ethan-1-aminium Iodide]",15800
2,"CC[N+](CC)(CC)CCOc1ccc(-c2nc3ccccc3o2)cc1.[I-] [Compound 28, 2-(4-(Benzo[d]oxazol-2-yl)phenoxy)-N,N,N-triethylethan-1-aminium Iodide]",72400
3,"CC[N+](CC)(CC)CCOc1ccc(-c2nc3ccccc3[nH]2)cc1 [Compound 29, 2-(4-(1H-Benzo[d]imidazol-2-yl)phenoxy)-N,N,N-triethylethan-1-aminium Iodide]",202000
4,"CC[N+](CC)(CC)CCOc1ccc(-c2ccc3cc[nH]c3c2)cc1.[I-] [Compound 30, 2-(4-(1H-Indol-6-yl)phenoxy)-N,N,N-triethylethan-1-aminium Iodide]",6460
5,"CC[N+](CC)(CC)CCOc1ccc(-c2ccc3[nH]ccc3c2)cc1.[I-] [Compound 31, 2-(4-(1H-Indol-5-yl)phenoxy)-N,N,N-triethylethan-1-aminium Iodide]",8130
6,"C[N+]1(C)CC[C@@H](Oc2ccc(-c3ccc4[nH]ccc4c3)cc2)C1.[I-] [Compound 33, (R)-3-(4-(1H-Indol-5-yl)phenoxy)-1,1-dimethylpyrrolidin-1-ium Iodide]",15900

# Same assay, conditions: maximal inhibition, coapplied with 1 mM ACh
row,Compound,inhibition of ACh-induced function at the α9α10-nAChR [%]
1,"CC[N+](CC)(CC)CCOc1ccc(-c2ccc3cc[nH]c3c2)cc1.[I-] [Compound 30, 2-(4-(1H-Indol-6-yl)phenoxy)-N,N,N-triethylethan-1-aminium Iodide]",100
2,"CC[N+](CC)(CC)CCOc1ccc(-c2ccc3[nH]ccc3c2)cc1.[I-] [Compound 31, 2-(4-(1H-Indol-5-yl)phenoxy)-N,N,N-triethylethan-1-aminium Iodide]",100
3,"C[N+]1(C)CC[C@@H](Oc2ccc(-c3ccc4[nH]ccc4c3)cc2)C1.[I-] [Compound 33, (R)-3-(4-(1H-Indol-5-yl)phenoxy)-1,1-dimethylpyrrolidin-1-ium Iodide]",100

# Target: T4, human α9α10-nAChR
# Assay: Two-electrode voltage clamp, compound applied alone at 100 μM: intrinsic activity, rebound current, residual ACh response
# Assay type: cell-based
# Conditions: 100 μM pulse, alone; vs 1 mM ACh; range over the named compounds
Compound,"partial agonism of α9α10-nAChRs, efficacy (AUC)","partial agonism of α9α10-nAChRs, efficacy (peak current)"
"CC[N+](CC)(CC)CCOc1ccc(-c2nc3ccccc3o2)cc1.[I-] [Compound 28, 2-(4-(Benzo[d]oxazol-2-yl)phenoxy)-N,N,N-triethylethan-1-aminium Iodide]",0.2–3 % of ACh control,5–55 % of ACh control
"C[N+]1(C)CC[C@@H](Oc2ccc(-c3ccc4[nH]ccc4c3)cc2)C1.[I-] [Compound 33, (R)-3-(4-(1H-Indol-5-yl)phenoxy)-1,1-dimethylpyrrolidin-1-ium Iodide]",0.2–3 % of ACh control,5–55 % of ACh control

# Same assay, conditions: 1 min after test compound; Figure 4
row,Compound,recovery of rebound current at α9α10-nAChR (in words)
1,"CC[N+](CC)(CC)CCOc1ccc(-c2nc3ccccc3o2)cc1.[I-] [Compound 28, 2-(4-(Benzo[d]oxazol-2-yl)phenoxy)-N,N,N-triethylethan-1-aminium Iodide]",almost complete recovery
2,"C[N+]1(C)CC[C@@H](Oc2ccc(-c3ccc4[nH]ccc4c3)cc2)C1.[I-] [Compound 33, (R)-3-(4-(1H-Indol-5-yl)phenoxy)-1,1-dimethylpyrrolidin-1-ium Iodide]",almost complete recovery

# Same assay, conditions: final ACh control 1 min after test compound; Figure 4
row,Compound,residual ACh-induced current at α9α10-nAChR (in words)
1,"CC[N+](CC)(CC)CCOc1ccc(-c2nc3ccccc3o2)cc1.[I-] [Compound 28, 2-(4-(Benzo[d]oxazol-2-yl)phenoxy)-N,N,N-triethylethan-1-aminium Iodide]",highest residual ACh-induced currents
2,"C[N+]1(C)CC[C@@H](Oc2ccc(-c3ccc4[nH]ccc4c3)cc2)C1.[I-] [Compound 33, (R)-3-(4-(1H-Indol-5-yl)phenoxy)-1,1-dimethylpyrrolidin-1-ium Iodide]",highest residual ACh-induced currents

# Target: T3, human α7-nAChR
# Assay: as above
# Assay type: cell-based
# Parameters: expressed in transfected cells; host or cells: SH-SY5Y neuroblastoma cells (transient)
# Conditions: 100 μM pulse, vs 1 mM ACh, range over the named compounds
row,Compound,"partial agonism at α7-nAChR, efficacy compared to ACh control (peak current)"
1,"CC[N+](CC)(CC)CCOc1ccc(-c2nc3ccccc3o2)cc1.[I-] [Compound 28, 2-(4-(Benzo[d]oxazol-2-yl)phenoxy)-N,N,N-triethylethan-1-aminium Iodide]",15–50%
